Reference: PubChem BioAssay AID588597 (Sanford-Burnham Center for Chemical Genomics, 2011)
Calls of active or inactive are those of the source.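 How the source made its calls: active means mean EC50 at or below 20 µM; inactive means the rest.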

Target: CHO-CHOP luciferase reporter, luminescence, UPR apoptotic arm
Assay: CHOP reporter activation in CHO-CHOP cells, SAR follow-up, counter-screen for UPR adaptive arm activator project, cell-based, luciferase luminescence, set 2 (AID 588597)

Row | Compound | EC50
1 | Cc1ccc(NC(=O)c2cc(-c3ccncc3)nc3ccccc23)cc1 | 8.56 µM
2 | O=C(Nc1ccc(F)c(F)c1)c1cc(-c2ccncc2)nc2ccccc12 | > 80 µM (inactive)
3 | O=C(Nc1cccc(F)c1F)c1cc(-c2ccncc2)nc2ccccc12 | > 80 µM (inactive)
4 | Cc1cc(Br)cc(NC(=O)c2cc(-c3ccncc3)nc3ccccc23)c1 | inactive
5 | O=C(Nc1cc(F)ccc1F)c1cc(-c2ccncc2)nc2ccccc12 | inactive
6 | O=C(Nc1ccccc1Br)c1cc(-c2ccncc2)nc2ccccc12 | > 80 µM (inactive)
7 | O=C(Nc1ccc(Cl)cc1)c1cc(-c2ccncc2)nc2ccccc12 | 7.43 µM
8 | O=C(Nc1ccc(C(F)(F)F)cc1)c1cc(-c2ccncc2)nc2ccccc12 | 1.99 µM
9 | O=C(Nc1cccc(F)c1Br)c1cc(-c2ccncc2)nc2ccccc12 | > 80 µM (inactive)
10 | O=C(Nc1ccc(Br)c(C(F)(F)F)c1)c1cc(-c2ccncc2)nc2ccccc12 | inactive
11 | O=C(Nc1cccc(C(F)(F)F)c1)c1cc(-c2ccncc2)nc2ccccc12 | > 80 µM (inactive)
12 | Cc1cc(NC(=O)c2cc(-c3ccncc3)nc3ccccc23)ccc1F | > 80 µM (inactive)
13 | O=C(Nc1cccc(F)c1)c1cc(-c2ccncc2)nc2ccccc12 | > 80 µM (inactive)
14 | COc1cccc(NC(=O)c2cc(-c3ccncc3)nc3ccccc23)c1 | > 80 µM (inactive)

Now from value to molecule:

Row | EC50 | Compound
15 | inactive | O=C(Nc1ccc(F)cc1)c1cc(-c2ccncc2)nc2ccccc12
16 | > 80 µM (inactive) | O=C(Nc1cccc(Br)c1)c1cc(-c2ccncc2)nc2ccccc12
17 | > 80 µM (inactive) | Cc1cc(NC(=O)c2cc(-c3ccccc3)nc3ccccc23)ccc1Br
18 | > 80 µM (inactive) | Cc1cccc(NC(=O)c2cc(-c3ccncc3)nc3ccccc23)c1
19 | > 80 µM (inactive) | Cc1cc(NC(=O)c2cc(-c3ccncc3)nc3ccccc23)ccc1Cl
20 | > 80 µM (inactive) | O=C(Nc1cccc(Cl)c1)c1cc(-c2ccncc2)nc2ccccc12
